Molecules are shown by their SMILES.

The test concerns the target T1, ROMK (Kir1.1) channel (Homo sapiens, UniProt P48048).
T1 sequence (P48048 1-391): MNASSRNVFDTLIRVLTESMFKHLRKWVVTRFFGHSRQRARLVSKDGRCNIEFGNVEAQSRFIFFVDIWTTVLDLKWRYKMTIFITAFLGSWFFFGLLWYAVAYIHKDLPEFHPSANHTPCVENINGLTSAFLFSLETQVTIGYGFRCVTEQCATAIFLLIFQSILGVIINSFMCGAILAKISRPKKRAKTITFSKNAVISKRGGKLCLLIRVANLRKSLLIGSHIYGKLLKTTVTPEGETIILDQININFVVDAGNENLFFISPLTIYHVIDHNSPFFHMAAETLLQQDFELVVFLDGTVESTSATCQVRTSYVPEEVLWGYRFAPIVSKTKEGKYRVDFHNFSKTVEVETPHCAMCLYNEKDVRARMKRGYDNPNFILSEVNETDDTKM
Briefly: Thallium Flux Assay. It is filed as cell-based. How it is done: A Thallium Flux Assay was performed on each of the final product compounds in the Examples. When the final product of an Example was an HCl salt, the salt was run in the Assay. This assay has been described previously; see, e.g., PCT Published Application WO 2013/062900.
The term IC50 denotes the point on the concentration scale where inhibition reaches its midpoint. High values mean a need for much substance, low ones inhibition by little substance. Turning to `O=C1C=C(N2CCC3(CCN(C[C@@H](O)c4ccc(-n5cnnn5)nc4)CC3)CC2)CO1` [Example 19, (S)-4-(9-(2-(6-(1H-tetrazol-1-yl)pyridin-3-yl)-2-hydroxyethyl)-3,9-diazaspiro[5.5]undecan-3-yl)furan-2(5H)-one], the IC50 is 0.074 µM.

Consider `Cc1cc(-n2cnnn2)cnc1[C@@H](O)CN1CCC2(CC1)CCN(C1=CC(=O)OC1)CC2` [Example 20, (S)-4-(9-(2-hydroxy-2-(3-methyl-5-(1H-tetrazol-1-yl)pyridin-2-yl)ethyl)-3,9-diazaspiro[5.5]undecan-3-yl)furan-2(5H)-one], for which the IC50 stood at 0.098 µM. The molecule `O=C1C=C(N2CCC3(CCN(C[C@H](O)c4ccc(-n5cnnn5)cc4F)CC3)CC2)CO1` [Example 22, (R)-4-(9-(2-(2-fluoro-4-(1H-tetrazol-1-yl)phenyl)-2-hydroxyethyl)-3,9-diazaspiro[5.5]undecan-3-yl)furan-2(5H)-one] had an IC50 of 0.017 µM.

As for `O=C1C=C(N2CCC3(CCN(C[C@@H](O)c4ccc(-n5cnnn5)cc4F)CC3)CC2)CO1` [Example 23, (S)-4-(9-(2-(2-fluoro-4-(1H-tetrazol-1-yl)phenyl)-2-hydroxyethyl)-3,9-diazaspiro[5.5]undecan-3-yl)furan-2(5H)-one], the IC50 was determined as 0.028 µM.

As to `Cc1cc(-n2cnnn2)ccc1[C@@H](O)CN1CCC2(CC1)CCN(C1=CC(=O)OC1)CC2` [Example 24, (R)-4-(9-(2-hydroxy-2-(2-methyl-4-(1H-tetrazol-1-yl)phenyl)ethyl)-3,9-diazaspiro[5.5]undecan-3-yl)furan-2(5H)-one], the midpoint of inhibition, the IC50, lay at 0.04 µM. `Cc1cc(-n2cnnn2)ccc1[C@H](O)CN1CCC2(CC1)CCN(C1=CC(=O)OC1)CC2` [Example 25, (S)-4-(9-(2-hydroxy-2-(2-methyl-4-(1H-tetrazol-1-yl)phenyl)ethyl)-3,9-diazaspiro[5.5]undecan-3-yl)furan-2(5H)-one] displayed an IC50 of 0.022 µM. Molecule `Cc1nc(-n2cnnn2)ccc1[C@@H](O)CN1CCC2(CC1)CCN(C1=CC(=O)OC1)C(=O)C2` [Example 26, (R)-9-(2-hydroxy-2-(2-methyl-6-(1H-tetrazol-1-yl)pyridin-3-yl)ethyl)-3-(5-oxo-2,5-dihydrofuran-3-yl)-3,9-diazaspiro[5.5]undecan-2-one] came in with an IC50 of 0.048 µM. On to `Cc1c([C@@H](O)CN2CCC3(CC2)CCN(C2=CC(=O)OC2)C(=O)C3)ccc2c1COC2=O` [Example 27, (R)-9-(2-hydroxy-2-(4-methyl-1-oxo-1,3-dihydroisobenzofuran-5-yl)ethyl)-3-(5-oxo-2,5-dihydrofuran-3-yl)-3,9-diazaspiro[5.5]undecan-2-one], for which the IC50 came to 0.433 µM. On to `CC1=C(N2CCC3(CCN(C[C@H](O)c4ccc5c(c4C)COC5=O)CC3)CC2=O)COC1=O` [Example 28, (R)-9-(2-hydroxy-2-(4-methyl-1-oxo-1,3-dihydroisobenzofuran-5-yl)ethyl)-3-(4-methyl-5-oxo-2,5-dihydrofuran-3-yl)-3,9-diazaspiro[5.5]undecan-2-one], for which the IC50 was 0.552 µM. The molecule `CC1=C(N2CCC3(CCN(C[C@H](O)c4ccc(-n5cnnn5)nc4C)CC3)CC2=O)COC1=O` [Example 29, (R)-9-(2-hydroxy-2-(2-methyl-6-(1H-tetrazol-1-yl)pyridin-3-yl)ethyl)-3-(4-methyl-5-oxo-2,5-dihydrofuran-3-yl)-3,9-diazaspiro[5.5]undecan-2-one] yielded an IC50 of 0.33 µM.

Regarding `O=C1C=C(N2CCC3(CCN(C[C@H](O)c4ccc(-n5cnnn5)nc4)CC3)OC2=O)CO1` [Example 30, (R)-9-(2-(6-(1H-tetrazol-1-yl)pyridin-3-yl)-2-hydroxyethyl)-3-(5-oxo-2,5-dihydrofuran-3-yl)-1-oxa-3,9-diazaspiro[5.5]undecan-2-one], the IC50 was determined as 0.171 µM. With `Cc1nc(-n2cnnn2)ccc1[C@@H](O)CN1CCC2(CC1)CCN(C1=CC(=O)OC1)C(=O)O2` [Example 31, (R)-9-(2-hydroxy-2-(2-methyl-6-(1H-tetrazol-1-yl)pyridin-3-yl)ethyl)-3-(5-oxo-2,5-dihydrofuran-3-yl)-1-oxa-3,9-diazaspiro[5.5]undecan-2-one], the IC50 turned out to be 0.065 µM. On to `CC1=C(N2CCC3(CCN(C[C@H](O)c4ccc5c(c4C)COC5=O)CC3)[C@@H](F)C2)COC1=O` [Example 34, 5-((R)-2-((R)-7-fluoro-9-(4-methyl-5-oxo-2,5-dihydrofuran-3-yl)-3,9-diazaspiro[5.5]undecan-3-yl)-1-hydroxyethyl)-4-methylisobenzofuran-1(3H)-one], for which the IC50 came out at 0.275 µM.

For the molecule `CC1=C(N2CCC3(CCN(C[C@H](O)c4ccc5c(c4C)COC5=O)CC3)[C@H](F)C2)COC1=O` [Example 35, 5-((R)-2-((S)-7-fluoro-9-(4-methyl-5-oxo-2,5-dihydrofuran-3-yl)-3,9-diazaspiro[5.5]undecan-3-yl)-1-hydroxyethyl)-4-methylisobenzofuran-1(3H)-one], inhibition was half-maximal at 0.236 µM (IC50). For `CC1=C(N2CCC3(CCN(CC(O)c4ccc(Br)cc4)CC3)CC2)COC1=O` (stereo not drawn) [Example 36, 4-(9-(2-(4-bromophenyl)-2-hydroxyethyl)-3,9-diazaspiro[5.5]undecan-3-yl)-3-methylfuran-2(5H)-one] the value was 0.115 µM.

On to `Cc1c([C@@H](O)CN2CCC3(CC2)CCN(C2=CC(=O)OC2C)CC3)ccc2c1COC2=O` (stereo partly drawn) [Example 37, 5-((1R)-1-hydroxy-2-(9-(2-methyl-5-oxo-2,5-dihydrofuran-3-yl)-3,9-diazaspiro[5.5]undecan-3-yl)ethyl)-4-methylisobenzofuran-1(3H)-one], for which the IC50 is 0.14 µM. `Cc1c([C@@H](O)CN2CCC3(CC2)CCN(C2=C(F)C(=O)OC2)CC3)ccc2c1COC2=O` [Example 38, (R)-5-(2-(9-(4-fluoro-5-oxo-2,5-dihydrofuran-3-yl)-3,9-diazaspiro[5.5]undecan-3-yl)-1-hydroxyethyl)-4-methylisobenzofuran-1(3H)-one]: half-maximal inhibition (IC50) required 0.007 µM. The molecule `Cc1nc(-n2cnnn2)ccc1[C@@H](O)CN1CCC2(CC1)CCN(C1=C(F)C(=O)OC1)CC2` [Example 39, (R)-3-fluoro-4-(9-(2-hydroxy-2-(2-methyl-6-(1H-tetrazol-1-yl)pyridin-3-yl)ethyl)-3,9-diazaspiro[5.5]undecan-3-yl)furan-2(5H)-one] displayed an IC50 of 0.011 µM.

For `Cc1c([C@@H](O)CN2CCC3(CC2)CCN(C2=C(Cl)C(=O)OC2)CC3)ccc2c1COC2=O` [Example 40, (R)-5-(2-(9-(4-chloro-5-oxo-2,5-dihydrofuran-3-yl)-3,9-diazaspiro[5.5]undecan-3-yl)-1-hydroxyethyl)-4-methylisobenzofuran-1(3H)-one], inhibition was half-maximal at 0.005 µM (IC50). `Cc1c([C@@H](O)CN2CCC3(CC2)CCN(C2=C(c4ccccc4)C(=O)OC2)CC3)ccc2c1COC2=O` [Example 41, (R)-5-(1-hydroxy-2-(9-(5-oxo-4-phenyl-2,5-dihydrofuran-3-yl)-3,9-diazaspiro[5.5]undecan-3-yl)ethyl)-4-methylisobenzofuran-1(3H)-one] registered an IC50 of 0.168 µM. For the molecule `Cc1c([C@@H](O)CN2CCC3(CC2)CCN(C2=C(c4ccncc4)C(=O)OC2)CC3)ccc2c1COC2=O` [Example 42, (R)-5-(1-hydroxy-2-(9-(5-oxo-4-(pyridin-4-yl)-2,5-dihydrofuran-3-yl)-3,9-diazaspiro[5.5]undecan-3-yl)ethyl)-4-methylisobenzofuran-1(3H)-one], the IC50 amounted to 0.352 µM. Take `Cc1c([C@@H](O)CN2CCC3(CC2)CCN(C2=C(C4CC4)C(=O)OC2)CC3)ccc2c1COC2=O` [Example 44, (R)-5-(2-(9-(4-cyclopropyl-5-oxo-2,5-dihydrofuran-3-yl)-3,9-diazaspiro[5.5]undecan-3-yl)-1-hydroxyethyl)-4-methylisobenzofuran-1(3H)-one]: the IC50 stood at 0.017 µM. The same measure for `CC1=C(N2CCC3(CCN(C[C@H](O)c4ccc(-n5cnnn5)nc4C)CC3)CC2)COC1=O` [Example 45, (R)-4-(9-(2-hydroxy-2-(2-methyl-6-(1H-tetrazol-1-yl)pyridin-3-yl)ethyl)-3,9-diazaspiro[5.5]undecan-3-yl)-3-methylfuran-2(5H)-one]: 0.016 µM; for `CC1=C(N2CCC3(CCN(C[C@@H](O)c4ccc(-n5cnnn5)nc4C)CC3)CC2)COC1=O` [Example 46, (S)-4-(9-(2-hydroxy-2-(2-methyl-6-(1H-tetrazol-1-yl)pyridin-3-yl)ethyl)-3,9-diazaspiro[5.5]undecan-3-yl)-3-methylfuran-2(5H)-one]: 0.038 µM; for `CC1=C(N2CCC3(CCN(C[C@H](O)c4ccc(-n5cnnn5)nc4)CC3)CC2)COC1=O` [Example 47, (R)-4-(9-(2-(6-(1H-tetrazol-1-yl)pyridin-3-yl)-2-hydroxyethyl)-3,9-diazaspiro[5.5]undecan-3-yl)-3-methylfuran-2(5H)-one]: 0.013 µM. Turning to `CC1=C(N2CCC3(CCN(C[C@@H](O)c4ccc(-n5cnnn5)nc4)CC3)CC2)COC1=O` [Example 48, (S)-4-(9-(2-(6-(1H-tetrazol-1-yl)pyridin-3-yl)-2-hydroxyethyl)-3,9-diazaspiro[5.5]undecan-3-yl)-3-methylfuran-2(5H)-one], half-maximal inhibition (IC50) required 0.019 µM. The same measure for `CC1=C(N2CCC3(CCN(C[C@H](O)c4ccc(-n5cnnn5)cc4)CC3)CC2)COC1=O` [Example 49, (R)-4-(9-(2-(4-(1H-tetrazol-1-yl)phenyl)-2-hydroxyethyl)-3,9-diazaspiro[5.5]undecan-3-yl)-3-methylfuran-2(5H)-one]: 0.016 µM.

The values above are taken from patent US9839629B2, “Inhibitors of the renal outer medullary potassium channel” (Merck Sharp & Dohme Corp., priority 2013, dated 2017).
